# Assays:
# [1] = system: cells with activating c-Kit mutations in the catalytic region; details: Ma et al., 2002; cited from earlier work
# M-07e cell line = assay: M-07e cell proliferation stimulated by SCF (CellTiter-Glo growth inhibition); assay type: cell-based; details: 72 h, SCF 100 ng/ml, three days, CellTiter-Glo luminescence, read-out: IC50, growth inhibition of SCF stimulated M-07e cells
# Description: This inhibition is measured by the effect of compound concentration on cell growth to assess IC50 values. M-07e cells were seeded at 5×10^4 cells per well of a 96 well cell culture plate in 50 μl of cell culture medium of Iscove's Medium 1× (MOD, CellGro Mediatech catalog #15-016-CV) supplemented with 10% FBS (HyClone catalog #SH30071.03). […] Cells were also treated with staurosporine as a positive control. Cells were stimulated by adding 20 μl of 600 ng/ml SCF to a final concentration of 100 ng/ml (Biosource International SCF kit ligand catalog #PHC2115) in cell culture medium. The cells were incubated at 37° C., 5% CO2 for three days. CellTiter-Glo Buffer (Promega Cell Viability Assay catalog #G7573) and substrate were equilibrated to room temperature, and enzyme/substrate Recombinant Firefly Luciferase/Beetle Luciferin was reconstituted. The cell plates were equilibrated to room temperature for 30 minutes, then lysed by addition of an equivalent volume of the Celltiter-Glo Reagent. […] The plates were read on a Victor Wallac II using Luminescence protocol modified to read 0.1 s per well. The luminescence reading assesses the ATP content, which correlates directly with cell number such that the reading as a function of compound concentration is used to determine the IC50 value.
Structure (SMILES),inhibition of cells with c-Kit mutations in the catalytic region [1],IC50 (M-07e cell line)
Cc1ccc(NC(=O)c2ccc(CN3CCN(C)CC3)cc2)cc1Nc1nccc(-c2cccnc2)n1 [ST1571],did not inhibit the cells,
"FC(F)(F)c1ccc(CNc2ccc(Cc3c[nH]c4ncccc34)cn2)cc1 [Compound 1-3, [5-(1H-Pyrrolo[2,3-b]pyridin-3-ylmethyl)-pyridin-2-yl]-(4-trifluoromethyl-benzyl)-amine]",,< 1000 nM
